In ChEMBL document CHEMBL1201862, “PubChem BioAssay data set” (2004):
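Values below derive from 48-hour exposures of cells grown in 96-well plates, with endpoints linearly interpolated between the two concentrations bracketing the appropriate inhibition level. At the GI50, growth is halved.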 Active and inactive are the calls of the source. Cut-off read from the data, not from the text of the source: active = GI50 up to about 1.1 µM and inactive = higher.

How the values were obtained:
Assay in all cases: NCI anticancer screen, dose series, 48 h
CAKI-1 = tested on: CAKI-1
COLO 205 = tested on: COLO 205
DU-145 = tested on: DU-145
HCC 2998 = tested on: HCC 2998
HCT-15 = tested on: HCT-15
K562 = tested on: K562
KM12 = tested on: KM12
M14 = tested on: M14
MDA-MB-231 = tested on: MDA-MB-231
MDA-N = tested on: MDA-N
NCI-H23 = tested on: NCI-H23
RPMI-8226 = tested on: RPMI-8226
RXF 393 = tested on: RXF 393
SF-268 = tested on: SF-268
SF-539 = tested on: SF-539
SK-OV-3 = tested on: SK-OV-3
U-251 = tested on: U-251
HL-60 = tested on: HL-60
OVCAR-4 = tested on: OVCAR-4
SNB-75 = tested on: SNB-75

Structure (SMILES)	GI50 (CAKI-1)	GI50 (COLO 205)	GI50 (DU-145)	GI50 (HCC 2998)	GI50 (HCT-15) [µM]	GI50 (K562)	GI50 (KM12)	GI50 (M14)	GI50 (MDA-MB-231)	GI50 (MDA-N)	GI50 (NCI-H23)	GI50 (RPMI-8226)	GI50 (RXF 393)	GI50 (SF-268)	GI50 (SF-539)	GI50 (SK-OV-3)	GI50 (U-251)	GI50 (HL-60)	GI50 (OVCAR-4)	GI50 (SNB-75)
COc1ccc(C(=O)CC(c2ccccc2)[C@H]2C(c3ccc(OC)cc3)=Nc3c(nc(SC)n(C)c3=O)NC2c2ccccc2)cc1 (some centres not stated)	> 100 µM (inactive)	> 100 µM (inactive)	> 100 µM (inactive)	> 100 µM (inactive)	> 100	> 100 µM (inactive)	> 100 µM (inactive)	> 100 µM (inactive)	> 100 µM (inactive)	> 100 µM (inactive)	> 100 µM (inactive)	> 100 µM (inactive)	> 100 µM (inactive)	> 100 µM (inactive)	> 100 µM (inactive)	> 100 µM (inactive)	> 100 µM (inactive)			
CCc1n[nH]c(=O)n1N=C(c1ccccc1)c1ccccc1	> 100 µM (inactive)	> 100 µM (inactive)	> 100 µM (inactive)		> 100	> 100 µM (inactive)	> 100 µM (inactive)	> 100 µM (inactive)	> 100 µM (inactive)	> 100 µM (inactive)	> 100 µM (inactive)	> 100 µM (inactive)	> 100 µM (inactive)	> 100 µM (inactive)			> 100 µM (inactive)	> 100 µM (inactive)	> 100 µM (inactive)	
Cc1[nH]n(-c2nc(O)c(-c3ccccc3)c(=O)[nH]2)c(=O)c1CCO	> 100 µM (inactive)	> 100 µM (inactive)	> 100 µM (inactive)		> 100	> 100 µM (inactive)	> 100 µM (inactive)	> 100 µM (inactive)	> 100 µM (inactive)	> 100 µM (inactive)	> 100 µM (inactive)	> 100 µM (inactive)	> 100 µM (inactive)	> 100 µM (inactive)	> 100 µM (inactive)	> 100 µM (inactive)	> 100 µM (inactive)	> 100 µM (inactive)	> 100 µM (inactive)	54.5 µM (inactive)
Cc1c2cccc-2ccc2c1[nH]c1ccccc12	6.31 µM (inactive)	1.89 µM (inactive)	4.55 µM (inactive)		2.58	2.94 µM (inactive)	2.34 µM (inactive)	1.73 µM (inactive)	1.76 µM (inactive)	1.97 µM (inactive)	2.77 µM (inactive)	2.43 µM (inactive)	3.21 µM (inactive)	2.04 µM (inactive)	1.81 µM (inactive)	3.23 µM (inactive)	1.66 µM (inactive)	3.1 µM (inactive)	2.23 µM (inactive)	2.14 µM (inactive)
O=c1c(C(c2ccco2)c2c(O)oc3ccccc3c2=O)c(O)oc2ccccc12	21.8 µM (inactive)	22.3 µM (inactive)	> 100 µM (inactive)	26.5 µM (inactive)	19.1	38.6 µM (inactive)	> 100 µM (inactive)		20 µM (inactive)	22.6 µM (inactive)	> 100 µM (inactive)	26.1 µM (inactive)		31.9 µM (inactive)			27.2 µM (inactive)	67.5 µM (inactive)	70.8 µM (inactive)	28.1 µM (inactive)
Cc1ccc(/C=C2\CCCCCC2=O)cc1	> 100 µM (inactive)	> 100 µM (inactive)	> 100 µM (inactive)	> 100 µM (inactive)	> 100	> 100 µM (inactive)	> 100 µM (inactive)	> 100 µM (inactive)	> 100 µM (inactive)	> 100 µM (inactive)	> 100 µM (inactive)	> 100 µM (inactive)		> 100 µM (inactive)		> 100 µM (inactive)	> 100 µM (inactive)	< 0.01 µM (active)	> 100 µM (inactive)	> 100 µM (inactive)
COc1ccc(/C=C/C(=O)NCC(NC(=O)/C=C/c2ccc(OC)c(OC)c2)C(=O)O)cc1OC (configuration not stated)	> 100 µM (inactive)	> 100 µM (inactive)	> 100 µM (inactive)	> 100 µM (inactive)	< 0.01	> 100 µM (inactive)	> 100 µM (inactive)	> 100 µM (inactive)	> 100 µM (inactive)	> 100 µM (inactive)	> 100 µM (inactive)	> 100 µM (inactive)	> 100 µM (inactive)	> 100 µM (inactive)	> 100 µM (inactive)	> 100 µM (inactive)	> 100 µM (inactive)		> 100 µM (inactive)	> 100 µM (inactive)
COc1c(C)c(C/C=C(\C)CC/C=C(\C)CCC=C(C)C)c(OC)c(OC)c1OC	> 100 µM (inactive)	> 100 µM (inactive)	> 100 µM (inactive)	54.6 µM (inactive)	> 100	> 100 µM (inactive)	> 100 µM (inactive)	> 100 µM (inactive)	> 100 µM (inactive)	76.9 µM (inactive)	> 100 µM (inactive)		44 µM (inactive)	> 100 µM (inactive)	> 100 µM (inactive)	> 100 µM (inactive)	> 100 µM (inactive)		> 100 µM (inactive)	> 100 µM (inactive)
